Laboratory results: article PMC8001898, “New Triterpene Glycosides from the Far Eastern Starfish Solaster pacificus and Their Biological Activity” (Biomolecules, 2021)
Like-named read-outs stand apart in the source and are kept apart here.

Columns and labels:
[1] = system: breast cancer MDA-MB-231 cells; assay: MTS cell viability assay, MDA-MB-231 cells; format: cell-based, human
Procedure: (§1) Human embryonic kidney HEK 293 cells (ATCC® no. CRL-1573™), colorectal carcinoma HT-29 cells (ATCC® no. HTB-38™), melanoma RPMI-7951 cells (ATCC® no. HTB-66), and breast cancer MDA-MB-231 cells (ATCC® HTB-26™) were obtained from the American Type Culture Collection (Manassas, VA, USA). […] The cell cultures were maintained at 37 °C in humidified atmosphere containing 5% CO2. […] After three passages the cells were used for the experiments. […] Then samples were vacuum evaporated and dissolved in DMSO to their stock concentrations of 20 mM. Cells (1.0 × 10^4) were seeded in 96-well plates (Jet Biofil, Guangzhou, China) and cultured in 200 µL of complete culture medium for 24 h at 37 °C in 5% CO2 incubator.

[2] = system: breast cancer MDA-MB-231 cells; assay: Soft agar colony formation assay, MDA-MB-231 cells; format: cell-based, human; conditions: for decrease of number of colonies of MDA-MB-231: 1 µM, 14 days; for decrease of number of colonies of MDA-MB-231 / colony growth of MDA-MB-231 cells (in words): soft agar; for colony growth of MDA-MB-231 cells (in words): concentrations of 0.5 µM and 1 µM; for colony formation of MDA-MB-231 cells (in words): nontoxic concentration of 0.5 µM
Procedure: (§2) Compounds 1–6 were dissolved in sterile DMSO to prepare stock concentrations of 20 mM. Cells were treated with serially diluted compounds 1–6 (culture medium used as diluent) to give the intended final concentrations. The vehicle control is the cells treated with equivalent volume of DMSO (less than 0.5%) for all presented experiments.
(§3) Human cancer cells (2.4 × 10^4/mL) were seeded into 6-well plate and treated with compounds 1–6 (0.1, 0.5, and 1 µM) or cisplatin (3 µM) in 1 mL of 0.3% BME agar containing 10% FBS, 2 mM L-glutamine, and 25 µg/mL gentamicin. The cultures were maintained in a 37 °C, 5% CO2 incubator for 14 days, and the cell colonies were scored using a Motic microscope AE 20 (XiangAn, Xiamen, China) and ImageJ software bundled with 64-bit Java 1.8.0_112 (NIH, Bethesda, MD, USA).
(§4) Figure 3 Effect of compounds 1–6 on colony formation of human colorectal carcinoma HT-29, melanoma RPMI-7951, and breast cancer MDA-MB-231 cell lines. HT-29, RPMI-7951, and MDA-MB-231 cells (2.4 × 10^4 /mL) treated with/without investigated 1–6 (0.1, 0.5, and 1 µM) and subjected into a soft agar. The culture was maintained at 37 °C in a 5% CO2 atmosphere for 2 weeks. The colonies were counted under a microscope with the aid of the ImageJ software program (n = 6 for control and each compound, n—quantity of photos). The asterisks (* p < 0.05, ** p < 0.01, *** p < 0.001) indicate a significant decrease in colony formation in cells treated with compounds compared with the nontreated cells (control).

[3] = system: colorectal carcinoma HT-29 cells; assay: MTS cell viability assay, HT-29 cells; format: cell-based, human
Procedure: as §1

[4] = system: melanoma RPMI-7951 cells; assay: MTS cell viability assay, RPMI-7951 cells; format: cell-based, human
Procedure: as §1

[5] = system: melanoma RPMI-7951 cells; assay: Soft agar colony formation assay, RPMI-7951 cells; format: cell-based, human; conditions: for decrease of number of colonies of RPMI-7951: 1 µM, 14 days; for decrease of number of colonies of RPMI-7951 / colony growth of RPMI-7951 cells (in words): soft agar; for colony growth of RPMI-7951 cells (in words): concentrations of 0.5 µM and 1 µM; for colony formation of RPMI-7951 cells (in words): nontoxic concentration of 0.5 µM
Procedure: as §2, §3, §4

[6] = system: colorectal carcinoma HT-29 cells; assay: Soft agar colony formation assay, HT-29 cells; format: cell-based, human; conditions: for decrease of number of colonies of HT-29: 1 µM, 14 days; for decrease of number of colonies of HT-29 / colony growth of HT-29 cells (in words): soft agar; for colony growth of HT-29 cells (in words): concentrations of 0.5 µM and 1 µM; for colony formation of HT-29 cells (in words): nontoxic concentration of 0.5 µM
Procedure: as §2, §3, §4

[7] = system: human embryonic kidney HEK 293 cells; assay: MTS cell viability assay, HEK 293 cells; format: cell-based
Procedure: as §1

[8] = Homo sapiens, MDA-MB-231, 24 h, individual compounds, 24 h, MTS, read-out: Inhibiting Concentration, (IC50), MDA-MB-231, a
[9] = Homo sapiens, HT-29, 24 h, individual compounds, 24 h, MTS, read-out: Inhibiting Concentration, (IC50), HT-29, a
[10] = Homo sapiens, RPMI-7951, 24 h, individual compounds, 24 h, MTS, read-out: Inhibiting Concentration, (IC50), RPMI-7951, a
[11] = Homo sapiens, HEK293, 24 h, individual compounds, 24 h, MTS, read-out: Inhibiting Concentration, (IC50), HEK 293, a
[12] = Homo sapiens, MDA-MB-231, 24 h, read-out: Inhibiting Concentration, (IC50), MDA-MB-231, a
[13] = Homo sapiens, HT-29, 24 h, read-out: Inhibiting Concentration, (IC50), HT-29, a
[14] = Homo sapiens, RPMI-7951, 24 h, read-out: Inhibiting Concentration, (IC50), RPMI-7951, a
[15] = Homo sapiens, HEK293, 24 h, read-out: Inhibiting Concentration, (IC50), HEK 293, a

## C=C(C)[C@H]1[C@@H]2C[C@@]3(C)C4=CC[C@H]5C(C)(C)[C@@H](O[C@@H]6OC[C@@H](O)[C@H](O)[C@H]6O[C@@H]6O[C@H](C)[C@@H](O[C@@H]7O[C@H](CO)[C@@H](O)[C@H](O[C@@H]8OC[C@@H](O)[C@H](OC)[C@H]8O)[C@H]7O)[C@H](O)[C@H]6O[C@@H]6OC[C@@H](O)[C@H](O)[C@H]6O)CC[C@]5(C)[C@@H]4CCC13C(=O)O2 [Compound 2, 3β-O-{3-O-methyl-β-D-xylopyranosyl-(1→3)-β-D-glucopyranosyl-(1→4)-[β-D-xylopyranosyl-(1→2)]-β-D-quinovopyranosyl-(1→2)-β-D-xylopyranosyl}-23,24,25,26,27-pentanorlanosta-7,20(22)-diene-18(16)-lactone]
[1]; [8]
  IC50: > 20 µM
[1]; individual compounds, 24 h, MTS, read-out: Inhibiting Concentration, (IC50), MDA-MB-231, a
  IC50: 21.5 ± 0.5 µM
[2]
  decrease of number of colonies of MDA-MB-231: 25%
[3]; [9]
  IC50: > 20 µM
[3]; individual compounds, 24 h, MTS, read-out: Inhibiting Concentration, (IC50), HT-29, a
  IC50: 26.2 ± 2.5 µM
[4]; [10]
  IC50: > 20 µM
[4]; individual compounds, 24 h, MTS, read-out: Inhibiting Concentration, (IC50), RPMI-7951, a
  IC50: 20.4 ± 1.6 µM
[5]
  decrease of number of colonies of RPMI-7951: 26%
[6]
  decrease of number of colonies of HT-29: 22%
[7]; [11]
  IC50: > 20 µM
[7]; individual compounds, 24 h, MTS, read-out: Inhibiting Concentration, (IC50), HEK 293, a
  IC50: 28.6 ± 2.1 µM

## N.N.[Cl][Pt][Cl] [cisplatin, reference compound]
[1]; after 48 h of treatment (data not shown), read-out: IC50 against MDA-MB-231 cells
  IC50: 7.8 µM
[3]; after 48 h of treatment (data not shown), read-out: IC50 against HT-29 cells
  IC50: 95.4 µM
[4]; after 48 h of treatment (data not shown), read-out: IC50 against RPMI-7951 cells
  IC50: 48.4 µM
[7]; after 48 h of treatment (data not shown), read-out: IC50 against HEK 293 cells
  IC50: 64.6 µM

## CO[C@@H]1[C@@H](O)[C@H](O[C@@H]2[C@@H](O)[C@H](O[C@H]3[C@H](O)[C@@H](O[C@@H]4OC[C@@H](O)[C@H](O)[C@H]4O)[C@H](O[C@H]4[C@H](O[C@H]5CC[C@]6(C)[C@@H]7CCC89C(=O)O[C@@](C)(/C=C\C=C(C)C)[C@H]8[C@@H](OC(C)=O)C[C@@]9(C)C7=CC[C@H]6C5(C)C)OC[C@@H](O)[C@@H]4O)O[C@@H]3C)O[C@H](CO)[C@H]2O)OC[C@H]1O (stereo partly shown) [Compound 4, cucumarioside C1]
[1]; [12]
  IC50: 3.6 ± 0.2 µM
[2]
  colony growth of MDA-MB-231 cells (in words): almost completely suppressed
  colony formation of MDA-MB-231 cells (in words): almost completely suppressed
[3]; [13]
  IC50: 5.3 ± 0.2 µM
[4]; [14]
  IC50: 5.8 ± 1.2 µM
[5]
  colony growth of RPMI-7951 cells (in words): almost completely suppressed
  colony formation of RPMI-7951 cells (in words): almost completely suppressed
[6]
  colony growth of HT-29 cells (in words): almost completely suppressed
  colony formation of HT-29 cells (in words): almost completely suppressed
[7]; [15]
  IC50: 5.5 ± 0.3 µM

## C=C(C)[C@H]1[C@@H]2C[C@@]3(C)C4=CC[C@H]5C(C)(C)[C@@H](O[C@@H]6OC[C@@H](O)[C@H](O)[C@H]6O[C@@H]6O[C@H](C)[C@@H](O[C@@H]7O[C@H](CO)[C@@H](O)[C@H](O[C@@H]8OC[C@@H](O)[C@H](OC)[C@H]8O)[C@H]7O)[C@H](O)[C@H]6O)CC[C@]5(C)[C@@H]4CCC13C(=O)O2 [Compound 6, cucumarioside A10]
[1]; [12]
  IC50: 5.5 ± 0.1 µM
[2]
  decrease of number of colonies of MDA-MB-231: 40%
[3]; [13]
  IC50: 7.8 ± 0.7 µM
[4]; [14]
  IC50: 5.8 ± 2.6 µM
[5]
  decrease of number of colonies of RPMI-7951: 45%
[6]
  decrease of number of colonies of HT-29: 28%
[7]; [15]
  IC50: 6.3 ± 0.6 µM

## CO[C@@H]1[C@@H](O)[C@H](O[C@@H]2[C@@H](O)[C@H](O[C@H]3[C@H](O)[C@@H](O[C@@H]4OC[C@@H](O)[C@H](O)[C@H]4O)[C@H](O[C@H]4[C@H](O[C@H]5CC[C@]6(C)[C@@H]7CCC89C(=O)O[C@@](C)(/C=C/C=C(C)C)[C@H]8[C@@H](OC(C)=O)C[C@@]9(C)C7=CC[C@H]6C5(C)C)OC[C@@H](O)[C@@H]4O)O[C@@H]3C)O[C@H](CO)[C@H]2O)OC[C@H]1O (stereo partly shown) [Compound 5, cucumarioside C2]
[1]; [12]
  IC50: 4.4 ± 0.09 µM
[2]
  colony growth of MDA-MB-231 cells (in words): almost completely suppressed
  colony formation of MDA-MB-231 cells (in words): almost completely suppressed
[3]; [13]
  IC50: 5.5 ± 0.6 µM
[4]; [14]
  IC50: 5.9 ± 0.9 µM
[5]
  colony growth of RPMI-7951 cells (in words): almost completely suppressed
  colony formation of RPMI-7951 cells (in words): almost completely suppressed
[6]
  colony growth of HT-29 cells (in words): almost completely suppressed
  colony formation of HT-29 cells (in words): almost completely suppressed
[7]; [15]
  IC50: 7.9 ± 0.9 µM

## CO[C@@H]1[C@@H](O)[C@H](O[C@@H]2[C@@H](O)[C@H](O[C@H]3[C@H](O)[C@@H](O[C@@H]4OC[C@@H](O)[C@H](O)[C@H]4O)[C@H](O[C@H]4[C@H](O[C@H]5CC[C@]6(C)[C@@H]7CCC89C(=O)O[C@@](C)(CCC=C(C)C)[C@H]8[C@@H](OC(C)=O)C[C@@]9(C)C7=CC[C@H]6C5(C)C)OC[C@@H](O)[C@@H]4O)O[C@@H]3C)O[C@H](CO)[C@H]2O)OC[C@H]1O (stereo partly drawn) [Compound 3, 3β-O-{3-O-methyl-β-D-xylopyranosyl-(1→3)-β-D-glucopyranosyl-(1→4)-[β-D-xylopyranosyl-(1→2)]-β-D-quinovopyranosyl-(1→2)-β-D-xylopyranosyl}-16β-acetoxyholosta-7,24-diene]
[1]; [8]
  IC50: 6.4 ± 0.4 µM
[2]
  colony growth of MDA-MB-231 cells (in words): almost completely suppressed
  colony formation of MDA-MB-231 cells (in words): almost completely suppressed
[3]; [9]
  IC50: 6.2 ± 0.3 µM
[4]; [10]
  IC50: 23.7 ± 0.4 µM
[5]
  colony growth of RPMI-7951 cells (in words): almost completely suppressed
  colony formation of RPMI-7951 cells (in words): almost completely suppressed
[6]
  colony growth of HT-29 cells (in words): almost completely suppressed
  colony formation of HT-29 cells (in words): almost completely suppressed
[7]; [11]
  IC50: 6.7 ± 0.2 µM
